Results reported in ChEMBL document CHEMBL1140518, “Unique spirocyclopiperazinium salt III: further investigation of monospirocyclopiperazinium (MSPZ) salts as potential analgesics” (Bioorg Med Chem Lett, 2007).

Each compound was assayed on Mus musculus (assay: Analgesic activity in mouse assessed as inhibition of acetic acid-induced writhing responses at 31 umol/kg, ip between 5 to 10 mins).
Assay type: functional
Design: scale not given: the % may be the effect or the level left

Going from `C[N+]1(C)CCN(c2cccc([N+](=O)[O-])c2)CC1.[I-]` to `C[N+]1(C)CCN(c2cccc([N+](=O)[O-])c2)CC1.[Br-]`, the Activity rises from -16% to 22%.

Going from `CC1C[N+]2(CCN(CCc3ccc([N+](=O)[O-])cc3)CC2)CC(C)O1.[Cl-]` (stereo not given) to `COc1ccc(CCN2CC[N+]3(CC2)CC(C)OC(C)C3)cc1.[Cl-]` (stereo not given), the Activity falls from -24% to -47%.

Compared with `CC1C[N+]2(CCN(Cc3ccccc3)CC2)CC(C)O1.[Cl-]` (stereo not given), `CC1C[N+]2(CCN(CCc3ccccc3)CC2)CC(C)O1.[Cl-]` (stereo not given) is higher in Activity: 21% for the first, 65% for the second.

Going from `CC1C[N+]2(CCN(CCCc3ccccc3)CC2)CC(C)O1.[Cl-]` (stereo not given) to `CC1C[N+]2(CCN(CCc3ccccn3)CC2)CC(C)O1.[Cl-]` (stereo not given), the Activity rises from -19% to -2%.

Compared with `[Br-].c1ccc(N2CC[N+]3(CCCC3)CC2)cc1`, `O=[N+]([O-])c1cccc(N2CC[N+]3(CCCC3)CC2)c1.[Br-]` is higher in Activity: 20% for the first, 61% for the second.

Compared with `CC1C[N+]2(CCN(C/C=C/c3ccccc3)CC2)CC(C)O1.[Cl-]` (stereo not given), `C=CCN1CC[N+]2(CC1)CC(C)OC(C)C2.[Cl-]` (stereo not given) is higher in Activity: -43% for the first, 49% for the second.

Compared with `COc1ccc(N2CC[N+]3(CCCC3)CC2)cc1.[Br-]`, `O=[N+]([O-])c1ccc(N2CC[N+]3(CCCC3)CC2)cc1.[Br-]` is lower in Activity: 56% for the first, 16% for the second.

Going from `[Cl-].c1ccc(CCN2CC[N+]3(CCCCC3)CC2)cc1` to `[Cl-].c1ccc(CCN2CC[N+]3(CCCCCC3)CC2)cc1`, the Activity falls from 5% to 4%.

Going from `C[N+]1(C)CCN(CCc2ccccc2)CC1.[Cl-]` to `[Cl-].c1ccc(CCN2CC[N+]3(CCCC3)CC2)cc1`, the Activity falls from 18% to -36%.

Each compound was assayed against Neuronal acetylcholine receptor; alpha4/beta2 (Homo sapiens, UniProt P17787+P43681) (assay: Inhibition of alpha-4-beta-2 nAChR).
Sequence of Neuronal acetylcholine receptor; alpha4/beta2 (P17787 whole entry): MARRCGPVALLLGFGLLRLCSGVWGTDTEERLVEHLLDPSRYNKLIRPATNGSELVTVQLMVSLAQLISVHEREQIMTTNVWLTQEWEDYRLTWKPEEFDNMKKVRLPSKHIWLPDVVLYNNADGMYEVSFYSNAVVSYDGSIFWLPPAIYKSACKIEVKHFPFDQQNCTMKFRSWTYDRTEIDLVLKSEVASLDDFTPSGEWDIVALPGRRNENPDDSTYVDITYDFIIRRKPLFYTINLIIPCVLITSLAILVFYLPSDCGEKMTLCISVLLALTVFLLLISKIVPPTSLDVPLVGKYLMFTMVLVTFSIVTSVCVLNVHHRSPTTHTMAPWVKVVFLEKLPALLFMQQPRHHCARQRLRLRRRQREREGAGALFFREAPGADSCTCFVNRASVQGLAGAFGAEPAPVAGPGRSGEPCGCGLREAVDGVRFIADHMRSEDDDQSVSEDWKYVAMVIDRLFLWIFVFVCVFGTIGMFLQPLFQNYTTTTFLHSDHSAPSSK
Sequence of Neuronal acetylcholine receptor; alpha4/beta2 (P43681 whole entry): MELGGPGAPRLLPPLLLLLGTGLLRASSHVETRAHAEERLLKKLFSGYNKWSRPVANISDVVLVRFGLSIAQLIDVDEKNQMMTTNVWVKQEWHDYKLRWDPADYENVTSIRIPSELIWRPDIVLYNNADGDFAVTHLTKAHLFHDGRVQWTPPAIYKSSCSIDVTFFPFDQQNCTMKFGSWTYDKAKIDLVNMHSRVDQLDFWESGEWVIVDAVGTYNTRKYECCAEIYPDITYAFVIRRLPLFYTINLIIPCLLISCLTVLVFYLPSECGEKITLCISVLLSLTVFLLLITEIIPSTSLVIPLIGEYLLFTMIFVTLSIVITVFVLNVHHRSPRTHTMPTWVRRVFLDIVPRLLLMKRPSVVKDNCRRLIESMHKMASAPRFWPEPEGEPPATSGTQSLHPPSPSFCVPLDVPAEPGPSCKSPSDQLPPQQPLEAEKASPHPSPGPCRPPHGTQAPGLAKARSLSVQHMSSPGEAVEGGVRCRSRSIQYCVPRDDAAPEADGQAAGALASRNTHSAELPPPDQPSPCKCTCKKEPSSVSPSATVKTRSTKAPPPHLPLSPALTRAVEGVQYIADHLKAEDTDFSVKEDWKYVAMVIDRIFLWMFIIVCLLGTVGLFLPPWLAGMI
Assay type: protein-complex assay

Compound `CC1C[N+]2(CCN(CCc3ccccc3)CC2)CC(C)O1.[Cl-]` (stereo not given) has an IC50 greater than 10 µM.

Each compound was assayed on Mus musculus (assay: […] in ip dosed nociception mouse model).
Assay type: functional

`CC1C[N+]2(CCN(CCc3ccccc3)CC2)CC(C)O1.[Cl-]` (stereo not given) gave an LD50 of 1550 µmol/kg.
